One assay concerns HIV-1 pNL4-3 WT. Nature of the assay: Late-stage single replication cycle antiviral assay, WT virus. It is filed as cell-based. As to conditions: Human immunodeficiency virus 1, TZM-bl, read-out: WT-IC50 (antiviral activity).
Assay [1] relates to HIV-1 pNL4-3 A128T IN mutant. The assay is described as follows: Late-stage single replication cycle antiviral assay, A128T IN mutant virus. It counts as cell-based. As to conditions: Human immunodeficiency virus 1, TZM-bl, read-out: A128T-IC50 (antiviral activity).

A word on the IC50: it is the concentration at which inhibition is half-maximal. As to `Cc1nc2ccccc2c(-c2ccc3c(c2)OCCO3)c1C(OC(C)(C)C)C(=O)O` (stereo not drawn) [Compound 2], the half-inhibitory concentration (IC50) in the assay on HIV-1 pNL4-3 WT is 700 ± 100 nM; in assay [1], 1100 ± 200 nM.

On to `Cc1nc2c(Br)cccc2c(-c2ccc3c(c2)OCCO3)c1C(OC(C)(C)C)C(=O)O` (stereo not drawn) [Compound 16ba], for which the values for the IC50 (in the assay on HIV-1 pNL4-3 WT; in assay [1]) were 600 ± 100 nM and 300 ± 100 nM, respectively.

Regarding `Cc1nc2ccc(Br)cc2c(-c2ccc3c(c2)OCCO3)c1C(OC(C)(C)C)C(=O)O` (stereo not drawn) [Compound 17], the IC50 with HIV-1 pNL4-3 WT amounted to 300 ± 100 nM; in assay [1] it was 10200 ± 2500 nM.
